From patent US9464283B2, “Signaling compositions, methods, and systems for effecting plant growth and crop enhancement” (KamTec, LLC, priority 2013, dated 2016)
Values joined by “and” are separate entries in the source; they are usually repeats but may differ in a detail not shown here. Equal entries are not always repeated.

Key:
Melody variety sunflower = experiment: Sunflower seed soak, field plots; type: in vivo; conditions: per Rep; 3 ppm, three hours seed soak
From the text: In this preferred embodiment of the present invention, sunflower seeds were selected from the Melody variety and were soaked for three hours in solutions containing 0.05% Tween 20 and BMTA or BMPA, at a concentration of 3 ppm. Another group of seeds of the same variety was soaked in a solution with only in 0.05% Tween 20 added (control). Following soaking, seeds were desiccated to storage moisture contents and BMTA, BMPA and control seeds were sown in three twenty-five foot plots (Reps) each on May 21 (plots were arranged in a randomized block design). On September 16, sunflower heads were harvested, with a harvest of around 20 heads per plot/Rep on average. The heads were hand-threshed to collect seeds. Moisture, count, and weight data was collected on seeds from each head.

[1] = tested on: aphid infestation on cotton Bt plant; experiment: Aphid infestation of cotton Bt plants after seed soak; type: in vivo; conditions: 5 ppm BMPA seed soak
Description: In this preferred embodiment of the present invention, seeds were soaked for a period of 3 hours in the bio-regulator solution. Cotton Bt were selected and studied to determine if bio-regulator chemistry will enhance or influence the inserted Bt genes of the transgenic plant. The seeds were separated into two different sets on July 2. The first set, Set 1, was soaked in 5 ppm BMPA solution with 0.05% Kinetic®. The second set, Set 2, was soaked in water with 0.05% v/v Kinetic®. The solution was drained and the treated seeds planted in starter plastic trays. After germination and after the seedlings reached the height of four inches, the cotton Bt plants were transplanted into larger six-inch plastic containers. The cotton plants were placed outdoors for the duration of the study. The different sets of plants were regularly observed throughout this study.

'M-202' rice = experiment: Rice seed soak 24 hours, tap water irrigation; type: in vivo, Oryza sativa L.; conditions: 5 ppm, 24 hours soak
Description: In this preferred embodiment of the present invention, seeds are soaked in prepared bio-regulator solutions for a period of 24 hours. Rice seeds were selected from the same ‘M-202’ type grains as in the previous study. The bio-regulator solutions were prepared using 5 ppm BMPA solution. The solution was drained and seeds planted in starter plastic containers filled with potting soil. After germination and plant growth reaching height of four inches, rice seedlings were transplanted from their greenhouse containers to six-inch diameter plastic containers and placed outdoor. Again, two sets of three pots for the control and test group were used. These studies were also carried out using an increased amount of BMPA. The amount was increased from 1 ppm to 5 ppm, and the results of the study were similar to the results outlined in the paragraph above.

[2] = tested on: 'M-202' medium-grain rice (Oryza sativa L.); experiment: Rice seed soak with NaCl irrigation (salt tolerance); type: in vivo; conditions: 5 ppm, 1500 ppm NaCl irrigation, planting through completion of study
Description: In another preferred embodiment of the present invention, seeds are soaked in prepared bio-regulator solutions for a period of three hours. Rice seeds were selected from ‘M-202’ medium-grain rice (Oryza sativa L.), (Reg. no 72) PI494105 type grains; this selection was meant to represent a typical California rice seed, and was not meant to be limiting. The bio-regulator solutions are prepared using 5 ppm BMTA solution with 0.05% v/v Kinetic® made by Helena Chemical Company. The solution was drained and the seeds planted in starter plastic containers with potting soil. After germination and having grown to 4 inches in height, the plants were transplanted into 6 inch diameter plastic containers. Two sets of three pots each were set up for this study; one set for the test group and one set for the control group. Both the control and test studies were irrigated with 1500 ppm NaCl solution from time of planting until the study was completed. The purpose of the NaCl irrigation was to determine the effect of the bio-regulator treatment in regards to salt tolerances.

SMILES | % Moist (Melody variety sunflower) | delay of the infestation of aphids [1] [days] | observed growth of rice plant ('M-202' rice) | observed growth of rice plant [2]
CN(CCOC(=O)COc1ccccc1)Cc1ccccc1 [BMPA] | 13.52% and 13.93% and 12.37% | ≤ 19 | enhanced growth | 
Cc1ccc(C(=O)OCCN(C)Cc2ccccc2)cc1 [BMTA] | 13.10% and 13.01% and 14.82% |  |  | enhanced growth
